The molecules below were run against T1, HIF-PHD2 (Homo sapiens, UniProt Q9GZT9) (assay: Assay for HIF-PHD2 Catalytic Activity (PHD2 Binding Activity)). Conditions: not given.
T1 construct: FLAG-tagged full length PHD2 expressed in and purified from baculovirus-infected Sf9 cells; FLAG; made in house; host or cells: baculovirus-infected Sf9 cells
T1 sequence (Q9GZT9 whole entry): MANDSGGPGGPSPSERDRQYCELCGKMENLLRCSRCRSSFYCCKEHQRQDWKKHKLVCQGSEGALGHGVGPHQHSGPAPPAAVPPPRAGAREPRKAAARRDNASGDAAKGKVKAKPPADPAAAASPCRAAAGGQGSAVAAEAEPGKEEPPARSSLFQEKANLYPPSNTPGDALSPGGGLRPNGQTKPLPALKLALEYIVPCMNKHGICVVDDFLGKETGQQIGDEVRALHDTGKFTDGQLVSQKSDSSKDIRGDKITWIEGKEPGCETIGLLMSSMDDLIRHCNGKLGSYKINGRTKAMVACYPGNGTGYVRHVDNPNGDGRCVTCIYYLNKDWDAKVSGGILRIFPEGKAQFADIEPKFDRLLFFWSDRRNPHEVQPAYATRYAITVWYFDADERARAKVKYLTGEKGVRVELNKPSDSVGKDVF
Format: biochemical
`CCOC(=O)C1CN(Cc2ncccc2C)CCC12C(=O)N(c1ccc(-c3ccccc3)cc1)C(=O)N2c1cc(O)ncn1` (single isomer, unassigned) [Compound 3-10, Ethyl 3-biphenyl-4-yl-1-(6-hydroxypyrimidin-4-yl)-8-[(3-methylpyridin-2-yl)methyl]-2,4-dioxo-1,3,8-triazaspiro[4.5]decane-6-carboxylate] was tested, and the IC50 was 0.5 to 20 nM.
Molecule `Cc1cccnc1CN1CCC2(CC1)C(=O)N(c1ccccc1)C(=O)N2c1nccc(O)n1` [Compound 1-3, 1-(4-hydroxypyrimidin-2-yl)-8-[(3-methylpyridin-2-yl)methyl]-3-phenyl-1,3,8-triazaspiro[4.5]decane-2,4-dione] has an IC50 greater than 50 nM.
Work on `Cc1cccnc1CN1CCC2(CC1)C(=O)N(c1ccc(-c3ccccc3)cc1)C(=O)N2c1ccccc1` [Compound 1-4, 3-biphenyl-4-yl-8-[(3-methylpyridin-2-yl)methyl]-1-phenyl-1,3,8-triazaspiro[4.5]decane-2,4-dione] yielded an IC50 of 0.5 to 20 nM.
Work on `Cc1cccnc1CN1CCC2(CC1)C(=O)N(c1ccc(-c3ccccc3)cc1)C(=O)N2c1cc(C(=O)O)ccn1` [Compound 1-5, 2-{3-biphenyl-4-yl-8-[(3-methylpyridin-2-yl)methyl]-2,4-dioxo-1,3,8-triazaspiro[4.5]dec-1-yl}isonicotinic acid] yielded an IC50 of 0.5 to 20 nM.
`Cc1cccnc1CN1CCC2(CC1)C(=O)N(c1ccc(-c3ccccc3)cc1)C(=O)N2c1cccc(F)n1` [Compound 1-6, 3-biphenyl-4-yl-1-(6-fluoropyridin-2-yl)-8-[(3-methylpyridin-2-yl)methyl]-1,3,8-triazaspiro[4.5]decane-2,4-dione] was tested, and the IC50 was 0.5 to 20 nM.
`Cc1cccnc1CN1CCC2(CC1)C(=O)N(c1ccc(-c3ccccc3)cc1)C(=O)N2c1ccc(C#N)cn1` [Compound 1-7, 6-{3-biphenyl-4-yl-8-[(3-methylpyridin-2-yl)methyl]-2,4-dioxo-1,3,8-triazaspiro[4.5]dec-1-yl}nicotinonitrile] gave an IC50 of 0.5 to 20 nM.
Molecule `Cc1cccnc1CN1CCC2(CC1)C(=O)N(c1ccc(-c3ccccc3)cc1)C(=O)N2c1ccncc1` [Compound 1-8, 3-biphenyl-4-yl-8-[(3-methylpyridin-2-yl)methyl]-1-pyridin-4-yl-1,3,8-triazaspiro[4.5]decane-2,4-dione] has an IC50 of 20 to 50 nM.
In the case of `Cc1cccnc1CN1CCC2(CC1)C(=O)N(c1ccc(-c3ccccc3)cc1)C(=O)N2c1ncc(O)cn1` [Compound 1-10, 3-biphenyl-4-yl-1-(5-hydroxypyrimidin-2-yl)-8-[(3-methylpyridin-2-yl)methyl]-1,3,8-triazaspiro[4.5]decane-2,4-dione], the IC50 is reported as 0.5 to 20 nM.
With `COc1cccc(N2C(=O)N(c3ccc(-c4ccccc4)cc3)C(=O)C23CCN(Cc2ncccc2C)CC3)n1` [Compound 1-11, 3-biphenyl-4-yl-1-(6-methoxypyridin-2-yl)-8-[(3-methylpyridin-2-yl)methyl]-1,3,8-triazaspiro[4.5]decane-2,4-dione] the IC50 was 0.5 to 20 nM.
`COC(=O)c1cccc(N2C(=O)N(c3ccc(-c4ccccc4)cc3)C(=O)C23CCN(Cc2ncccc2C)CC3)n1` [Compound 1-13, methyl 6-{3-biphenyl-4-yl-8-[(3-methylpyridin-2-yl)methyl]-2,4-dioxo-1,3,8-triazaspiro[4.5]dec-1-yl}pyridine-2-carboxylate] showed an IC50 of 0.5 to 20 nM.
`Cc1cccnc1CN1CCC2(CC1)C(=O)N(c1ccc(-c3ccccc3)cc1)C(=O)N2c1cccc(C(=O)O)n1` [Compound 1-14, 6-{3-biphenyl-4-yl-8-[(3-methylpyridin-2-yl)methyl]-2,4-dioxo-1,3,8-triazaspiro[4.5]dec-1-yl}pyridine-2-carboxylic acid] was tested, and the IC50 was 0.5 to 20 nM.
`COc1ccnc(N2C(=O)N(c3ccc(-c4nnn[nH]4)cc3)C(=O)C23CCN(Cc2ncccc2C)CC3)n1` [Compound 1-15, 1-(4-methoxypyrimidin-2-yl)-8-[(3-methylpyridin-2-yl)methyl]-3-[4-(1H-tetrazol-5-yl)phenyl]-1,3,8-triazaspiro[4.5]decane-2,4-dione] was tested, and the IC50 was 20 to 50 nM.
In the case of `Cc1cccnc1CN1CCC2(CC1)C(=O)N(c1ccc(-c3nnn[nH]3)cc1)C(=O)N2c1nccc(O)n1` [Compound 1-16, 1-(4-hydroxypyrimidin-2-yl)-8-[(3-methylpyridin-2-yl)methyl]-3-[4-(1H-tetrazol-5-yl)phenyl]-1,3,8-triazaspiro[4.5]decane-2,4-dione], the IC50 is reported as greater than 50 nM.
Work on `Cc1cccnc1CN1CCC2(CC1)C(=O)N(c1ccc(C(=O)O)cc1)C(=O)N2c1nccc(O)n1` [Compound 1-17, 4-{1-(4-hydroxypyrimidin-2-yl)-8-[(3-methylpyridin-2-yl)methyl]-2,4-dioxo-1,3,8-triazaspiro[4.5]dec-3-yl}benzoic acid] yielded an IC50 greater than 50 nM.
With `Cc1cccnc1CN1CCC2(CC1)C(=O)N(c1ccc(-c3ccccc3)cc1)C(=O)N2c1cccnc1` [Compound 1-18, 3-biphenyl-4-yl-8-[(3-methylpyridin-2-yl)methyl]-1-pyridin-3-yl-1,3,8-triazaspiro[4.5]decane-2,4-dione] the IC50 was 0.5 to 20 nM.
`COc1ccnc(N2C(=O)N(c3ccc(-c4ccccc4)cc3)C(=O)C23CCN(Cc2nccn2CC(=O)OC(C)(C)C)CC3)n1` [Compound 1-19, tert-butyl (2-{[3-biphenyl-4-yl-1-(4-methoxypyrimidin-2-yl)-2,4-dioxo-1,3,8-triazaspiro[4,5]dec-8-yl]methyl}-1H-imidazol-1-yl)acetate] showed an IC50 greater than 50 nM.
`COc1ccnc(N2C(=O)N(c3ccc(-c4ccccc4)cc3)C(=O)C23CCN(Cc2nccn2CC(=O)O)CC3)n1` [Compound 1-21, (2-{[3-biphenyl-4-yl-1-(4-methoxypyrimidin-2-yl)-2,4-dioxo-1,3,8-triazaspiro[4.5]dec-8-yl]methyl}-1H-imidazol-1-yl)acetic acid] showed an IC50 of 0.5 to 20 nM.
Molecule `COc1ccnc(N2C(=O)N(c3ccc(-c4ccccc4)cc3)C(=O)C23CCN(Cc2nccn2CCC(=O)O)CC3)n1` [Compound 1-22, 3-(2-{[3-biphenyl-4-yl-1-(4-methoxypyrimidin-2-yl)-2,4-dioxo-1,3,8-triazaspiro[4.5]dec-8-yl]methyl}-1H-imidazol-1-yl)propanoic acid] has an IC50 of 0.5 to 20 nM.
In the case of `O=C(O)Cn1ccnc1CN1CCC2(CC1)C(=O)N(c1ccc(-c3ccccc3)cc1)C(=O)N2c1nccc(O)n1` [Compound 1-23, (2-{[3-biphenyl-4-yl-1-(4-hydroxypyrimidin-2-yl)-2,4-dioxo-1,3,8-triazaspiro[4.5]dec-8-yl]methyl}-1H-imidazol-1-yl)acetic acid], the IC50 is reported as 0.5 to 20 nM.
`O=C(O)CCn1ccnc1CN1CCC2(CC1)C(=O)N(c1ccc(-c3ccccc3)cc1)C(=O)N2c1nccc(O)n1` [Compound 1-24, 3-(2-{[3-biphenyl-4-yl-1-(4-hydroxypyrimidin-2-yl)-2,4-dioxo-1,3,8-triazaspiro[4.5]dec-8-yl]methyl}-1H-imidazol-1-yl)propanoic acid] showed an IC50 of 0.5 to 20 nM.
For `COc1ccnc(N2C(=O)N(c3ccc(C#N)cc3)C(=O)C23CCN(Cc2ncccc2C)CC3)n1` [Compound 1-25, 4-{1-(4-methoxypyrimidin-2-yl)-8-[(3-methylpyridin-2-yl)methyl]-2,4-dioxo-1,3,8-triazaspiro[4.5]dec-3-yl}benzonitrile], the IC50 was greater than 50 nM.
`CCOC(=O)c1ccc(N2C(=O)N(c3nccc(OC)n3)C3(CCN(Cc4ncccc4C)CC3)C2=O)cc1` [Compound 1-26, ethyl 4-{1-(4-methoxypyrimidin-2-yl)-8-[(3-methylpyridin-2-yl)methyl]-2,4-dioxo-1,3,8-triazaspiro[4.5]dec-3-yl}benzoate] gave an IC50 of 0.5 to 20 nM.
`COc1ccnc(N2C(=O)N(c3ccc(-c4ccccc4)cc3)C(=O)C23CCN(Cc2ncccc2Br)CC3)n1` [Compound 1-28, 3-biphenyl-4-yl-8-[(3-bromopyridin-2-yl)methyl]-1-(4-methoxypyrimidin-2-yl)-1,3,8-triazaspiro[4.5]decane-2,4-dione] showed an IC50 of 20 to 50 nM.
In the case of `COc1ccnc(N2C(=O)N(c3ccc(-c4ccccc4)cc3)C(=O)C23CCN(Cc2ncccc2C)CC3)n1` [Compound 1-29, 3-biphenyl-4-yl-1-(4-methoxypyrimidin-2-yl)-8-[(3-methylpyridin-2-yl)methyl]-1,3,8-triazaspiro[4.5]decane-2,4-dione], the IC50 is reported as 0.5 to 20 nM.
For `COc1ccnc(N2C(=O)N(c3ccccc3)C(=O)C23CCN(Cc2ncccc2C)CC3)n1` [Compound 1-30, 1-(4-methoxypyrimidin-2-yl)-8-[(3-methylpyridin-2-yl)methyl]-3-phenyl-1,3,8-triazaspiro[4.5]decane-2,4-dione], the IC50 was greater than 50 nM.
`O=C1N(c2ccc(-c3ccccc3)cc2)C(=O)C2(CCN(Cc3ncccc3Br)CC2)N1c1nccc(O)n1` [Compound 1-31, 3-biphenyl-4-yl-8-[(3-bromopyridin-2-yl)methyl]-1-(4-hydroxypyrimidin-2-yl)-1,3,8-triazaspiro[4.5]decane-2,4-dione] was tested, and the IC50 was greater than 50 nM.
With `COc1ccnc(N2C(=O)N(c3ccc(-c4ccccc4)cc3)C(=O)C23CCN(Cc2ncccc2C#N)CC3)n1` [Compound 1-40, 2-{[3-biphenyl-4-yl-1-(4-methoxypyrimidin-2-yl)-2,4-dioxo-1,3,8-triazaspiro[4.5]dec-8-yl]methyl}nicotinonitrile] the IC50 was greater than 50 nM.
`COc1ccnc(N2C(=O)N(c3ccc(-c4ccccc4)cc3)C(=O)C23CCN(Cc2ncccc2-c2nnn[nH]2)CC3)n1` [Compound 1-41, 3-biphenyl-4-yl-1-(4-methoxypyrimidin-2-yl)-8-{[3-(1H-tetrazol-5-yl)pyridin-2-yl]methyl}-1,3,8-triazaspiro[4.5]decane-2,4-dione] showed an IC50 greater than 50 nM.
Molecule `Cc1cccnc1CN1CCC2(CC1)C(=O)N(c1ccc(-c3ccccc3)cc1)C(=O)N2c1ncccc1O` [Compound 1-43, 3-biphenyl-4-yl-1-(3-hydroxypyridin-2-yl)-8-[(3-methylpyridin-2-yl)methyl]-1,3,8-triazaspiro[4.5]decane-2,4-dione] has an IC50 of 20 to 50 nM.

Same assay, conditions: read-out: PHD2 Binding Activity IC50
With `Cc1cccnc1CN1CCC2(CC1)C(=O)N(c1ccc(-c3ccccc3)cc1)C(=O)N2c1cccs1` [Compound 1-27, 3-biphenyl-4-yl-8-[(3-methylpyridin-2-yl)methyl]-1-(2-thienyl)-1,3,8-triazaspiro[4.5]decane-2,4-dione] the IC50 was 0.5 to 20 nM.

— US8921555B2, “Substituted-1,3,8-triazaspiro[4.5]decane-2,4-diones” (Merck Sharp & Dohme Corp., priority 2009, dated 2014)
